Results as given in article PMC10415144, “Structural insights into CodY activation and DNA recognition” (Nucleic Acids Research, 2023).

What was measured:
SaCodY [1] = biological target: T1, SaCodY (Staphylococcus aureus, UniProt Q2FHI3); experiment: X-ray crystal structure of complex; assay type: binding
T1 construct: gene codY; full-length; expressed in E. coli BL21(DE3)pLysS; N-terminal His6-tag cut with TEV protease, Gly-Ala remnant before start Met

SaCodY [2] = biological target: T1, SaCodY; experiment: bio-layer interferometry, activation of binding to hutP operator DNA; assay type: biochemical; conditions: 10 mM Leu with 2 mM GTP; pH 8, 2 mM MgCl2, 25 °C; allosteric activator
EfCodY [3] = biological target: T2, EfCodY (Enterococcus faecalis, UniProt Q834K5); experiment: Leu binding assay (method in supplement); conditions: compared with Lys74Ala mutant; details only in supplement
T2 construct: gene codY; full-length; expressed in E. coli BL21(DE3)pLysS; N-terminal His6-tag cut with TEV protease, Gly-Ala remnant before start Met; two dimers on 30-bp DNA

EfCodY [4] = biological target: T2, EfCodY; experiment: X-ray crystal structure of complex; assay type: binding; conditions: co-crystal with 30-bp DNA; 4 mM Leu; GAF domain BCAA site of protomers A and B only
EfCodY [5] = biological target: T2, EfCodY; experiment: bio-layer interferometry, reduction of Leu-activated binding to hutP operator DNA; assay type: biochemical; conditions: 2 mM GTP with 10 mM Leu; pH 8, 2 mM MgCl2, 25 °C; negative effect, binding to protein only presumed

T1 sequence (Q2FHI3 whole entry): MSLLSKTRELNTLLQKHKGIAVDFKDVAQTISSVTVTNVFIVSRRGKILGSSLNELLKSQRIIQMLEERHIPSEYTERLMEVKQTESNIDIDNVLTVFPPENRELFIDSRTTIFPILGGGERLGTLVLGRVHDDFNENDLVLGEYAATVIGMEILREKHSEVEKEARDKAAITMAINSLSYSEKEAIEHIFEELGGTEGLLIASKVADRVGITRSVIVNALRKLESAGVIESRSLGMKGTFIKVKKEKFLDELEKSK
T2 sequence (Q834K5 entry or part of it): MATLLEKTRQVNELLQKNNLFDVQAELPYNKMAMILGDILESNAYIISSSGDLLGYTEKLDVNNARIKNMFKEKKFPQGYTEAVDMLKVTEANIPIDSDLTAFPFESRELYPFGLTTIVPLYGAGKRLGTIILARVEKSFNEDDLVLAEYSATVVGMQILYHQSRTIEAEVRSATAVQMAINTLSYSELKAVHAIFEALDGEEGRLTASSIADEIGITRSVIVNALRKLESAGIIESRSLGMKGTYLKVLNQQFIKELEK

For CC[C@H](C)[C@H](N)C(=O)O [Ile], the “X-ray crystal structure of complex” value (SaCodY [1]; co-crystal with GTP and 30-bp DNA, 20 mM Ile, GAF domain BCAA site) was “The SaCodY-DNA complex was co-crystallized with Ile and GTP”.

In the case of CC(C)C[C@H](N)C(=O)O [Leu], the “bio-layer interferometry, activation of binding to hutP operator DNA” value (SaCodY [2]) is reported as “SaCodY was activated by Ile (and to a lesser extent by Leu) and GTP”, the affinity (EfCodY [3]) is reported as “the mutant binds Leu with comparable affinity to the wild type” and the “X-ray crystal structure of complex” value (EfCodY [4]) is reported as “EfCodY complex was co-crystallized in the presence of Leu, yet Leu bound only to protomers”.

For Nc1nc2c(ncn2[C@@H]2O[C@H](COP(=O)(O)OP(=O)(O)OP(=O)(O)O)[C@@H](O)[C@H]2O)c(=O)[nH]1 [GTP], the “X-ray crystal structure of complex” value (SaCodY [1]; co-crystal with Ile and 30-bp DNA, 2 mM GTP, GAF domain near dimer interface, allosteric) was “The SaCodY-DNA complex was co-crystallized with Ile and GTP” and the “bio-layer interferometry, reduction of Leu-activated binding to hutP operator DN” value (EfCodY [5]) was “Together with Leu, GTP reduced activation, presumably by interacting with the protein”.
